Assay results reported in US12570613B2, “Imidazoquinoline or benzoindazolone compound and intermediate for preparing same” (LMITO THERAPEUTICS INC., priority 2020, dated 2026).

Target: NQO1 protein (Homo sapiens, UniProt P15559)
Assay: In vitro NQO1 enzyme activity assay (cytochrome C reduction, absorbance at 550 nm)
Format: biochemical
Conditions: NQO1 2 ng
Method: In order to evaluate the activity of the synthesized compound in NQO1, the experiments were performed as follows:
The synthesized compound was dissolved in DMSO to make a 10 mM stock solution, which was further diluted with DMSO to 250 μM so as to prepare a working solution. For experimental groups, the working solution of the compound was added to an enzyme reaction solution in which 50 μL of 1.54 mM Cytochrome C solution was added to 900 μL of 50 mM Tris-HCl (pH7.5) containing 0.14% BSA. For negative control groups, DMSO not containing the compound of the invention was added to the enzyme reaction solution as above. For each experimental and control group, 20 μL of 100 ng/mL NQO1 protein was added, and then 10 μL of 20 mM NADH was added to bring up the total volume to 1 mL. The change of absorbance was measured at 550 nm for 10 minutes using 1 mL cuvette. The kinetics of reaction was measured by the increase of absorbance as the cytochrome C was reduced at 550 nm over 10 minutes. The activity of NQO1 was measured by the amount of cytochrome C that is being reduced (nmol cytochrome C that was reduced/min/ug NQO1 protein). • Absorption coefficient of Cytochrome C: 21.1 (μmol/mL)^−1cm^−1 • BSA: Bovine Serum Albumin • […]: Tris(hydroxymethyl)aminomethane hydrochloride (buffer solution) • Equipment=Cary 100 UV-Vis Spectrophotometer • The results are shown in Tables 1 to 8.

Sequence of NQO1 protein (P15559 whole entry, species assumed): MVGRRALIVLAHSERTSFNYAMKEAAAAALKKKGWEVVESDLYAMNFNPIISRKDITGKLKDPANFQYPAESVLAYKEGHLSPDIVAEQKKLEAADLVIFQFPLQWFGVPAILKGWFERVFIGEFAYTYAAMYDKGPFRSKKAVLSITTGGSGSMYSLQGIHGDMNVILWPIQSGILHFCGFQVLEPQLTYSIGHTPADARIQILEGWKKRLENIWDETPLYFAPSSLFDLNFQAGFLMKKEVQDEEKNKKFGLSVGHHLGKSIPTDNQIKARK

## Cc1nn(-c2ccccc2)c2c1C(=O)C(=O)c1ccccc1-2 [Compound 9, 3-Methyl-1-phenyl-1H-benzo[g]indazol-4,5-dione]
10 nM Compound (Table 1)
  NQO1 activity assay Cytochrome C reduced/min/μg NQO1 protein: 932 nmol cytochrome C that was reduced/min/ug NQO1 protein
50 nM Compound (Table 2)
  NQO1 activity assay Cytochrome C reduced/min/μg NQO1 protein: 2093 nmol cytochrome C that was reduced/min/ug NQO1 protein
50 nM Compound (Table 3)
  NQO1 activity assay Cytochrome C reduced/min/μg NQO1 protein: 3089 nmol cytochrome C that was reduced/min/ug NQO1 protein
50 nM Compound (Table 4)
  NQO1 activity assay Cytochrome C reduced/min/μg NQO1 protein: 3864 nmol cytochrome C that was reduced/min/ug NQO1 protein
50 nM Compound (Table 5)
  NQO1 activity assay Cytochrome C reduced/min/μg NQO1 protein: 3091 nmol cytochrome C that was reduced/min/ug NQO1 protein
50 nM Compound (Table 6)
  NQO1 activity assay Cytochrome C reduced/min/μg NQO1 protein: 2885 nmol cytochrome C that was reduced/min/ug NQO1 protein
50 nM Compound (Table 7)
  NQO1 activity assay Cytochrome C reduced/min/μg NQO1 protein: 2892 nmol cytochrome C that was reduced/min/ug NQO1 protein
50 nM Compound (Table 8)
  NQO1 activity assay Cytochrome C reduced/min/μg NQO1 protein: 2709 nmol cytochrome C that was reduced/min/ug NQO1 protein

## Cc1nn(-c2cc(Cl)cc(Cl)c2)c2c1C(=O)C(=O)c1ccccc1-2 [Compound 36, 1-(3,5-Dichlorophenyl)-3-methyl-1H-benzo[g]indazol-4,5-dione]
50 nM Compound (Table 2)
  NQO1 activity assay Cytochrome C reduced/min/μg NQO1 protein: 1873 nmol cytochrome C that was reduced/min/ug NQO1 protein

## O=C1C(=O)c2c(CCc3ccccc3)nn(-c3ccccc3)c2-c2ccccc21 [Compound 12, 3-Phenethyl-1-phenyl-1H-benzo[g]indazol-4,5-dione]
10 nM Compound (Table 1)
  NQO1 activity assay Cytochrome C reduced/min/μg NQO1 protein: 225 nmol cytochrome C that was reduced/min/ug NQO1 protein

## O=C1C(=O)c2c(Cn3ccnc3)nn(-c3ccccc3)c2-c2ccccc21 [Compound 24, 3-((1H-Imidazol-1-yl)methyl)-1-phenyl-1H-benzo[g]indazol-4,5-dione]
10 nM Compound (Table 1)
  NQO1 activity assay Cytochrome C reduced/min/μg NQO1 protein: 596 nmol cytochrome C that was reduced/min/ug NQO1 protein

## O=C1C(=O)c2c(-c3ccc(F)c(F)c3)nn(-c3ccccc3)c2-c2ccccc21 [Compound 15, 3-(3,4-Difluorophenyl)-1-phenyl-1H-benzo[g]indazol-4,5-dione]
10 nM Compound (Table 1)
  NQO1 activity assay Cytochrome C reduced/min/μg NQO1 protein: 190 nmol cytochrome C that was reduced/min/ug NQO1 protein

## Cc1c2c(nn1CCc1ccccc1F)-c1ccccc1C(=O)C2=O [Compound 70, 2-(2-Fluorophenethyl)-3-methyl-2H-benzo[g]indazol-4,5-dione]
50 nM Compound (Table 8)
  NQO1 activity assay Cytochrome C reduced/min/μg NQO1 protein: 1611 nmol cytochrome C that was reduced/min/ug NQO1 protein

## Cc1ccc(S(=O)(=O)n2nc3c(c2C)C(=O)C(=O)c2ccccc2-3)cc1 [Compound 50, 3-Methyl-2-tosyl-2H-benzo[g]indazol-4,5-dione]
50 nM Compound (Table 6)
  NQO1 activity assay Cytochrome C reduced/min/μg NQO1 protein: 1542 nmol cytochrome C that was reduced/min/ug NQO1 protein

## O=C1C(=O)c2ncc(-c3ccccc3)n2-c2ccccc21 [Compound 1, 1-Phenylimidazo[1,2-a]quinolin-4,5-dione]
10 nM Compound (Table 1)
  NQO1 activity assay Cytochrome C reduced/min/μg NQO1 protein: 658 nmol cytochrome C that was reduced/min/ug NQO1 protein

## CC(C)OCc1nn(-c2ccccc2)c2c1C(=O)C(=O)c1ccccc1-2 [Compound 19, 3-(Isopropoxymethyl)-1-phenyl-1H-benzo[g]indazol-4,5-dione]
10 nM Compound (Table 1)
  NQO1 activity assay Cytochrome C reduced/min/μg NQO1 protein: 106 nmol cytochrome C that was reduced/min/ug NQO1 protein

## Cc1c2c(nn1S(=O)(=O)c1ccc(C(F)(F)F)cc1)-c1ccccc1C(=O)C2=O [Compound 57, 3-Methyl-2-(4-(trifluoromethyl)phenylsulfonyl)-2H-benzo[g]indazol-4,5-dione]
50 nM Compound (Table 7)
  NQO1 activity assay Cytochrome C reduced/min/μg NQO1 protein: 1868 nmol cytochrome C that was reduced/min/ug NQO1 protein

## Cc1nn(-c2ccc(F)cc2F)c2c1C(=O)C(=O)c1ccccc1-2 [Compound 32, 1-(2,4-Difluorophenyl)-3-methyl-1H-benzo[g]indazol-4,5-dione]
10 nM Compound (Table 1)
  NQO1 activity assay Cytochrome C reduced/min/μg NQO1 protein: 839 nmol cytochrome C that was reduced/min/ug NQO1 protein

## Cc1nn(-c2ccc(Cl)cc2)c2c1C(=O)C(=O)c1ccccc1-2 [Compound 26, 1-(4-Chlorophenyl)-3-methyl-1H-benzo[g]indazol-4,5-dione]
10 nM Compound (Table 1)
  NQO1 activity assay Cytochrome C reduced/min/μg NQO1 protein: 465 nmol cytochrome C that was reduced/min/ug NQO1 protein

## CC(C)c1cnc2n1-c1ccccc1C(=O)C2=O [Compound 3, 1-Isopropylimidazo[1,2-a]quinolin-4,5-dione]
10 nM Compound (Table 1)
  NQO1 activity assay Cytochrome C reduced/min/μg NQO1 protein: 755 nmol cytochrome C that was reduced/min/ug NQO1 protein

## Cc1c2c(nn1C)-c1ccccc1C(=O)C2=O [Compound 23, 2,3-Dimethyl-2H-benzo[g]indazol-4,5-dione]
10 nM Compound (Table 1)
  NQO1 activity assay Cytochrome C reduced/min/μg NQO1 protein: 477 nmol cytochrome C that was reduced/min/ug NQO1 protein

## Cc1c2c(nn1S(=O)(=O)c1ccc(F)cc1F)-c1ccccc1C(=O)C2=O [Compound 59, 2-(2,4-Difluorophenylsulfonyl)-3-methyl-2H-benzo[g]indazol-4,5-dione]
50 nM Compound (Table 8)
  NQO1 activity assay Cytochrome C reduced/min/μg NQO1 protein: 1923 nmol cytochrome C that was reduced/min/ug NQO1 protein

## Cc1ccc(CCn2nc(C)c3c2-c2ccccc2C(=O)C3=O)cc1 [Compound 68, 3-Methyl-1-(4-methylphenethyl)-1H-benzo[g]indazol-4,5-dione]
50 nM Compound (Table 8)
  NQO1 activity assay Cytochrome C reduced/min/μg NQO1 protein: 1865 nmol cytochrome C that was reduced/min/ug NQO1 protein

## O=C1C(=O)c2cnn(-c3ccccc3)c2-c2ccccc21 [Compound 33, 1-Phenyl-1H-benzo[g]indazol-4,5-dione]
10 nM Compound (Table 1)
  NQO1 activity assay Cytochrome C reduced/min/μg NQO1 protein: 436 nmol cytochrome C that was reduced/min/ug NQO1 protein

## O=C1C(=O)c2c(-c3ccccc3)nn(-c3ccccc3)c2-c2ccccc21 [Compound 13, 1,3-Diphenyl-1H-benzo[g]indazol-4,5-dione]
10 nM Compound (Table 1)
  NQO1 activity assay Cytochrome C reduced/min/μg NQO1 protein: 198 nmol cytochrome C that was reduced/min/ug NQO1 protein

## Cc1nn(-c2ccc(Cl)cc2Cl)c2c1C(=O)C(=O)c1ccccc1-2 [Compound 28, 1-(2,4-Dichlorophenyl)-3-methyl-1H-benzo[g]indazol-4,5-dione]
10 nM Compound (Table 1)
  NQO1 activity assay Cytochrome C reduced/min/μg NQO1 protein: 745 nmol cytochrome C that was reduced/min/ug NQO1 protein

## Cc1c2c(nn1S(=O)(=O)c1cccc3cccnc13)-c1ccccc1C(=O)C2=O [Compound 60, 3-Methyl-2-(quinolin-8-ylsulfonyl)-2H-benzo[g]indazol-4,5-dione]
50 nM Compound (Table 8)
  NQO1 activity assay Cytochrome C reduced/min/μg NQO1 protein: 2692 nmol cytochrome C that was reduced/min/ug NQO1 protein

## Cc1n[nH]c2c1C(=O)C(=O)c1ccccc1-2 [Compound 43, 3-Methyl-1H-benzo[g]indazol-4,5-dione]
50 nM Compound (Table 2)
  NQO1 activity assay Cytochrome C reduced/min/μg NQO1 protein: 1008 nmol cytochrome C that was reduced/min/ug NQO1 protein

## Cc1c2c(nn1S(=O)(=O)c1cccc(Cl)c1)-c1ccccc1C(=O)C2=O [Compound 47, 2-(3-Chlorophenylsulfonyl)-3-methyl-2H-benzo[g]indazol-4,5-dione]
50 nM Compound (Table 5)
  NQO1 activity assay Cytochrome C reduced/min/μg NQO1 protein: 1277 nmol cytochrome C that was reduced/min/ug NQO1 protein

## CCOC(=O)c1cn2c(n1)C(=O)C(=O)c1ccccc1-2 [Compound 5, Ethyl 4,5-dioxo-4,5-dihydroimidazo[1,2-a]quinolin-2-carboxylate]
10 nM Compound (Table 1)
  NQO1 activity assay Cytochrome C reduced/min/μg NQO1 protein: 816 nmol cytochrome C that was reduced/min/ug NQO1 protein

## Cc1nn(-c2nccs2)c2c1C(=O)C(=O)c1ccccc1-2 [Compound 40, 3-Methyl-1-(thiazol-2-yl)-1H-benzo[g]indazol-4,5-dione]
50 nM Compound (Table 3)
  NQO1 activity assay Cytochrome C reduced/min/μg NQO1 protein: 2041 nmol cytochrome C that was reduced/min/ug NQO1 protein

## COc1ccc(S(=O)(=O)n2nc3c(c2C)C(=O)C(=O)c2ccccc2-3)cc1 [Compound 51, 2-(4-Methoxyphenylsulfonyl)-3-methyl-2H-benzo[g]indazol-4,5-dione]
50 nM Compound (Table 6)
  NQO1 activity assay Cytochrome C reduced/min/μg NQO1 protein: 1288 nmol cytochrome C that was reduced/min/ug NQO1 protein

## Cc1c2c(nn1S(=O)(=O)c1ccc(Cl)cc1)-c1ccccc1C(=O)C2=O [Compound 49, 2-(4-Chlorophenylsulfonyl)-3-methyl-2H-benzo[g]indazol-4,5-dione]
50 nM Compound (Table 6)
  NQO1 activity assay Cytochrome C reduced/min/μg NQO1 protein: 2171 nmol cytochrome C that was reduced/min/ug NQO1 protein

## Cc1nn(C)c2c1C(=O)C(=O)c1ccccc1-2 [Compound 22, 1,3-Dimethyl-1H-benzo[g]indazol-4,5-dione]
10 nM Compound (Table 1)
  NQO1 activity assay Cytochrome C reduced/min/μg NQO1 protein: 481 nmol cytochrome C that was reduced/min/ug NQO1 protein

## Cc1nn(-c2ccncc2)c2c1C(=O)C(=O)c1ccccc1-2 [Compound 41, 3-Methyl-1-(pyridin-4-yl)-1H-benzo[g]indazol-4,5-dione]
50 nM Compound (Table 3)
  NQO1 activity assay Cytochrome C reduced/min/μg NQO1 protein: 1617 nmol cytochrome C that was reduced/min/ug NQO1 protein

## Cc1nn(C(C)C)c2c1C(=O)C(=O)c1ccccc1-2 [Compound 20, 1-Isopropyl-3-methyl-1H-benzo[g]indazol-4,5-dione]
10 nM Compound (Table 1)
  NQO1 activity assay Cytochrome C reduced/min/μg NQO1 protein: 918 nmol cytochrome C that was reduced/min/ug NQO1 protein
